Paper PMC9661480, “Discovery and Optimization of Indoline-Based Compounds as Dual 5-LOX/sEH Inhibitors: In Vitro and In Vivo Anti-Inflammatory Characterization” (Journal of Medicinal Chemistry, 2022)

Assays:
[1] = biological target: T1, human recombinant sEH (Homo sapiens, UniProt P34913); experiment: sEH activity assay (PHOME substrate); assay type: biochemical; details: Table 2; human isolated sEH; mean ± SEM
T1 construct: made in house; host or cells: Sf9 insect cells (recombinant baculovirus)
T1 sequence (P34913 1-555): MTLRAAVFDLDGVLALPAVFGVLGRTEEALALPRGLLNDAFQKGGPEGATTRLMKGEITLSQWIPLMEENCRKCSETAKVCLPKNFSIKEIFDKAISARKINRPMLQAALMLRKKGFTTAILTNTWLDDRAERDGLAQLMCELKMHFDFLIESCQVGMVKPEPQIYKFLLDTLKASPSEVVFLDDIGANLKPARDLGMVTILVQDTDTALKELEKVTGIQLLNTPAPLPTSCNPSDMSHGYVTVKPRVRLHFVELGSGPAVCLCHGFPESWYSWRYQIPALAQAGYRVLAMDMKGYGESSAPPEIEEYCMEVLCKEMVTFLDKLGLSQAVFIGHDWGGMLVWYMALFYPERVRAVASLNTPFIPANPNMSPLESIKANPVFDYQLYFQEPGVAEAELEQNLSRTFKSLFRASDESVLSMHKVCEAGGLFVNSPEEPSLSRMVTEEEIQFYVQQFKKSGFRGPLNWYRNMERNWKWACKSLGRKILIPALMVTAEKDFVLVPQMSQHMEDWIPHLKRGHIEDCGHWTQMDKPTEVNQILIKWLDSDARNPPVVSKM

[2] = biological target: T2, 5-LOX (Homo sapiens, UniProt P09917); experiment: Cell-free 5-LOX activity assay; assay type: biochemical; design: made in house; host or cells: Escherichia coli Bl21 (DE3); details: Table 2; human isolated 5-LOX; mean ± SEM
T2 sequence (P09917 1-674): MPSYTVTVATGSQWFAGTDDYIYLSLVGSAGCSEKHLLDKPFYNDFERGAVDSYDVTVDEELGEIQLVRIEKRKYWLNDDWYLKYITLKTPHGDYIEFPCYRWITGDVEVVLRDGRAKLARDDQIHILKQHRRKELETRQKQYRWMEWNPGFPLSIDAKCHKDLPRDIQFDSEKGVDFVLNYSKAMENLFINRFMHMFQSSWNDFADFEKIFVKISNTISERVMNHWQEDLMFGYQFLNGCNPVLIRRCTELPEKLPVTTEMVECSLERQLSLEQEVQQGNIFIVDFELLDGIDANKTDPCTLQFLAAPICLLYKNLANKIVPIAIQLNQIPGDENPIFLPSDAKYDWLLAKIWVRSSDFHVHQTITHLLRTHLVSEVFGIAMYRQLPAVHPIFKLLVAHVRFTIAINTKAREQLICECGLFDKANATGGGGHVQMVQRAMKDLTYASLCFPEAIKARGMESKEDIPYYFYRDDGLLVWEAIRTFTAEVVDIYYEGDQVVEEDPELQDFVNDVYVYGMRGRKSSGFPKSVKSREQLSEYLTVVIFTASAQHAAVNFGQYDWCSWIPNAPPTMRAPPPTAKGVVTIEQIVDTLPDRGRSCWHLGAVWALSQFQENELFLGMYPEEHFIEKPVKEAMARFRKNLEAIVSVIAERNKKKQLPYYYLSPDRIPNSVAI

[3] = In vivo plasma levels of 73; details: mouse, ip, mean ±SD

1-(1-(4-Aminobutyl)indolin-5-yl)-3-neopentylthiourea [compound 51]
IC50 [1]: > 10 µM
IC50 [2]: > 10 µM

4-(3-(1-(4-Fluorobenzyl)indolin-5-yl)thioureido)benzoic Acid [compound 58]
IC50 [1]: > 10 µM

CC(C)(C)CNC(=S)Nc1ccc2c(c1)CCN2Cc1ccc(N=O)cc1 [compound 73, 1-Neopentyl-3-(1-(4-nitrosobenzyl)indolin-5-yl)thiourea]
concentration at 0.5 h ([3]; 0.5 h after 10 mg Kg-1 intraperitoneal): 15.4 ± 2.5 ng/mL
concentration at 1 h ([3]; 1 h after 10 mg Kg-1 intraperitoneal): 12.3 ± 0.9 ng/mL
concentration at 2 h ([3]; 2 h after 10 mg Kg-1 intraperitoneal): 10.6 ± 0.6 ng/mL
concentration at 4 h ([3]; 4 h after 10 mg Kg-1 intraperitoneal): 1.1 ± 0.1 ng/mL
